Results as given in US20260265267A1, “NOVEL COMPOUNDS WITH MTORC2-INHIBITORY ACTIVITY AND USES THEREOF” (Aliad Biopharma, priority 2023, published 2026).

Key:
mTORC2 = target: T1, mTORC2 (Homo sapiens, UniProt P42345); assay: mTORC2 inhibitory activity in HeLa cells (Akt Ser473 phosphorylation, Western blot); assay type: cell-based; conditions: for selective inhibition of mTORC2: 40 μM, versus mTORC1; for selective inhibition of mTORC2 / remaining activity at 40 µM: 9 hours; for remaining activity at 40 µM: read-out: pSer473-AKT/AKT (% control); for inhibition at 40 µM: HeLa, 9 h, read-out: reduction in Akt Ser473 phosphorylation compared to the control group
T1 construct: the following experiments were conducted in HeLa cells; endogenous in cells; host or cells: HeLa
Description: (§1) Specifically, HeLa cells were cultured in a 5% CO2 incubator at 37° C. in DMEM (Dulbecco's Modified Eagles Media) medium supplemented with 10% FBS, penicillin (100 unit/ml), and streptomycin (100 μg/ml). Cultivation was started by seeding 4×10^5 cells in a 100 mm culture dish, and subculture was carried out every 3 days.
(§2) Human cell line HeLa cells were seeded in a 60 mm culture dish at a density of 2×10^5 cells/plate, and cultured for 24 hours. Then, HeLa cells were treated with 70 types of compounds at a concentration of 40 μM each for 9 hours. HeLa cells were washed twice with cold 1×PBS, and then lysed with 100 μl of RIPA buffer (50 mM Tris-HCl (pH7.4), 0.25% sodium deoxycholate, 50 mM NaF, 1% NP-40, 150 mM NaCl, 1 mM β-glycerophosphate, 1 mM PMSF, 1 mM NaVO4, 1 μg/ml leupeptin, 1 μg/ml pepstatin A, 10 nM calyculin A, 10 μg/ml aprotinin, 1 mM EDTA) to hemolyze the cell membrane. Then, the lysates were centrifuged at 12,000 rpm at 4° C. for 10 minutes to collect the supernatant, which is cell lysate. Protein concentration in the cell lysate was determined using the BCA protein assay kit (Thermo Fisher Scientific), and equal amounts of protein were separated by SDS-PAGE.
(§3) Western blot analysis was performed by the following method. […] After washing the membrane three times for 5 minutes each with TBS-T buffer, it was incubated with primary antibodies diluted in TBS-T buffer containing 5% skim milk or 5% BSA overnight at 4° C. Subsequently, the membrane was washed three times for 5 minutes each with TBS-T buffer, and then incubated with secondary antibodies diluted in TBS-T buffer containing 5% skim milk at room temperature for 30 minutes. The membrane was washed five times for 5 minutes each with TBS-T buffer containing 5% skim milk, and then the protein bands bound by the secondary antibody were detected using a chemiluminescence method. The primary antibodies used were Akt (cell signaling, #4691), pAkt(S473) (Cell signaling, #4060), p70S6K (Cell signaling, #S6198), pp70S6K(T389) (cell signaling, #9205S), LC3-II (MBL, #PM036), and the secondary antibodies used were HRP conjugated anti-rabbit (Jackson immunoresearch laboratory, #711-035-152) and HRP conjugated anti-mouse IgG (Jackson immunoresearch laboratory, #515-035-072).
As an mTORC2 activity indicator in HeLa cells, the level of Akt Ser473 phosphorylation was selected as a marker, and the phosphor-Akt (Ser473) signal obtained from Western blot analysis was normalized to the pan-Akt signal, and the data were expressed as a percentage relative to the control group treated with DMSO only, which is a vehicle.

mTORC1 = target: T2, mTORC1 (Homo sapiens, UniProt P42345); assay: mTORC1 inhibitory activity in HeLa cells (p70S6K Thr389 phosphorylation, Western blot); assay type: cell-based; conditions: for remaining activity at 40 µM: 9 hours, read-out: pThr389-S6K/S6K (% control); for inhibition at 40 µM: HeLa, 9 h, read-out: reduction in p70S6K Thr389 phosphorylation compared to the control group
T2 construct: the following experiments were conducted in HeLa cells; endogenous in cells; host or cells: HeLa
Description: as §1, §2, §3
As an mTORC1 activity indicator in HeLa cells, the level of p70S6K Thr389 phosphorylation was selected as a marker, and the level of phosphor-p70S6K (Thr389) signal measured by Western blot analysis was normalized to a level of pan-p70S6K signal, and then expressed as a percentage of the control group treated with only DMSO, which is a vehicle.

LC3-II = LC3-II formation as indicator of autophagy in HeLa cells (Western blot); assay type: cell-based, human; conditions: Homo sapiens, 9 hours, read-out: LC3-II (% control)
Description: as §1, §2, §3
LC3-II formation was selected as an indicator of autophagy in HeLa cells, and the LC3-II signal obtained from Western blot analysis was normalized to the pan-Akt signal and the data were expressed as a percentage relative to the control group treated with DMSO only, which is a vehicle.

[1] = system: 5×FAD Alzheimer's disease model mice; assay: Passive avoidance test in 5×FAD mice (long-term memory); assay type: in vivo; conditions: 5 mg/kg, 14 days / 2 weeks (FIG. 7)
Description: In order to evaluate the efficacy of HN2210, HN2213, and HN2313 on Alzheimer's disease-related symptoms, specifically regarding 1) memory and cognitive impairment, 2) amyloid plaques, 3) neurofibrillary tangles (NFTs), and 4) brain inflammation, an in vivo efficacy assessment of HN2210, HN2213 and HN2313 was conducted using 5×FAD Alzheimer's disease model mice. The 5×FAD mice were purchased from Jackson Lab, USA (Cat #034840-JAX) and crossed once with C57bl6 mice to produce F1 heterozygous offspring (Het). The compound was administered via intraperitoneal injection to 6-month-old 5×FAD Het mice, followed by behavioral testing. The normal control mice, which were littermates of the 5×FAD Het mice, were aged to 6 months and received DMSO injection at the same volume.
Specifically, to mice trained to avoid bright light three times daily, an electric foot shock (1 mA, 300 g) was applied for 3 seconds in a dark room at the same time on the next day. After 24 hours, the mice were placed again in the same room, and the avoidance response by light, that is, the time taken to move from the bright room to the dark room was measured. At 24 hours after habituation training, the mice were placed back into the bright room, and the latency time for entering the dark room was recorded over a period of 720 seconds.

Row | SMILES | selective inhibition of mTORC2 (mTORC2) | remaining activity at 40 µM (mTORC2) [%] | inhibition at 40 µM (mTORC2) [%] | remaining activity at 40 µM (mTORC1) [%] | inhibition at 40 µM (mTORC1) [%] | activity at 40 µM (LC3-II) [%] | passive avoidance latency time, % of the normal control level [1] [%]
1 | O=C1c2cc3c(cc2OCc2c1ccc(NC1CC1)c2F)OCO3 [HN2318, 8-(cyclopropylamino)-7-fluoro-[1,3]dioxolo[4′,5′:4,5]benzo[1,2-b]benzo[e]oxepin-11(6H)-one] | selectively inhibit mTORC2 | 42 | > 20 | 109 | – | 227 | –
2 | O=C1c2cc3c(cc2OCc2c1ccc(NC1CCCC1)c2F)OCO3 [HN2319, 8-(cyclopentylamino)-7-fluoro-[1,3]dioxolo[4′,5′:4,5]benzo[1,2-b]benzo[e]oxepin-11(6H)-one] | – | 79 | > 20 | 78 | > 20 | 157 | –
3 | COc1cc2c(cc1OC)C(=O)c1cc(F)c(NC3CCCC3)cc1CC2 [HN2321, 2-(cyclopentylamino)-3-fluoro-7,8-dimethoxy-10,11-dihydro-5H-dibenzo[a,d][7]annulen-5-one] | – | 140 | – | 33 | > 20 | 160 | –
4 | COc1cccc(CNc2cc3c(cc2F)C(=O)c2cc4c(cc2OC3)OCO4)c1 [HN2325, 9-fluoro-8-((3-methoxybenzyl)amino)-[1,3]dioxolo[4′,5′:4,5]benzo[1,2-b]benzo[e]oxepin-11(6H)-one] | – | 87 | – | 44 | > 20 | 249 | –
5 | CO[C@H]1C[C@@H]2CC[C@@H](C)[C@@](O)(O2)C(=O)C(=O)N2CCCC[C@H]2C(=O)O[C@H]([C@H](C)C[C@@H]2CC[C@@H](O)[C@H](OC)C2)CC(=O)[C@H](C)/C=C(\C)[C@@H](O)[C@@H](OC)C(=O)[C@H](C)C[C@H](C)/C=C/C=C/C=C/1C [rapamycin, reference compound] | – | – | – | – | – | – | ~36

Continued, in another order:

Row | selective inhibition of mTORC2 (mTORC2) | remaining activity at 40 µM (mTORC2) [%] | inhibition at 40 µM (mTORC2) [%] | remaining activity at 40 µM (mTORC1) [%] | inhibition at 40 µM (mTORC1) [%] | SMILES | activity at 40 µM (LC3-II) [%] | passive avoidance latency time, % of the normal control level [1] [%]
6 | selectively inhibit mTORC2 | 69 | > 20 | 153 | – | COc1ccc(CNc2cc3c(cc2F)C(=O)c2cc4c(cc2OC3)OCO4)cc1 [HN2326, 9-fluoro-8-((4-methoxybenzyl)amino)-[1,3]dioxolo[4′,5′:4,5]benzo[1,2-b]benzo[e]oxepin-11(6H)-one] | 404 | –
7 | selectively inhibit mTORC2 | 78 | > 20 | 86 | – | COc1ccc(CNc2cc3c(cc2F)C(=O)c2cc4c(cc2OC3)OCO4)c(OC)c1 [HN2328, 8-((2,4-dimethoxybenzyl)amino)-9-fluoro-[1,3]dioxolo[4′,5′:4,5]benzo[1,2-b]benzo[e]oxepin-11(6H)-one] | 340 | –
8 | – | 36 | > 20 | 57 | > 20 | COc1ccc(CNc2cc3c(cc2F)C(=O)c2cc4c(cc2OC3)OCO4)cc1OC [HN2329, 8-((3,4-dimethoxybenzyl)amino)-9-fluoro-[1,3]dioxolo[4′,5′:4,5]benzo[1,2-b]benzo[e]oxepin-11(6H)-one] | 386 | –
